Source: patent publication US20260125400A1, “TYK2 DEGRADERS AND USES THEREOF” (Kymera Therapeutics, Inc., priority 2023, published 2026)
Where two headings read alike, the source gives them in different places.

Target: T1, TYK2 (Homo sapiens, UniProt P29597)
T1 construct: Degradation of TYK2 in cells was quantitatively measured using Meso Scale Discovery (MSD) technology; endogenous in cells; host or cells: OCI-LY10
Experiment: TYK2 MSD degradation in OCI-LY10 cells
Assay type: cell-based
Details: 4 to 24 hours incubation; for DC50: read-out: TYK2 MSD OCI-LY10 Rel-DC50
Procedure, shortened: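 OCI-LY10 cells were treated with 9-dose 1:3 series (top 1 to 10 μM final) for 4 to 24 hours at 37° C. Lysate TYK2 quantified by MSD sandwich immunoassay; DC50 and Dmax from four-parameter inhibitor vs. response fit.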

[1] = TYK2 degradation in OCI-LY10 cells

T1 sequence (P29597 whole entry): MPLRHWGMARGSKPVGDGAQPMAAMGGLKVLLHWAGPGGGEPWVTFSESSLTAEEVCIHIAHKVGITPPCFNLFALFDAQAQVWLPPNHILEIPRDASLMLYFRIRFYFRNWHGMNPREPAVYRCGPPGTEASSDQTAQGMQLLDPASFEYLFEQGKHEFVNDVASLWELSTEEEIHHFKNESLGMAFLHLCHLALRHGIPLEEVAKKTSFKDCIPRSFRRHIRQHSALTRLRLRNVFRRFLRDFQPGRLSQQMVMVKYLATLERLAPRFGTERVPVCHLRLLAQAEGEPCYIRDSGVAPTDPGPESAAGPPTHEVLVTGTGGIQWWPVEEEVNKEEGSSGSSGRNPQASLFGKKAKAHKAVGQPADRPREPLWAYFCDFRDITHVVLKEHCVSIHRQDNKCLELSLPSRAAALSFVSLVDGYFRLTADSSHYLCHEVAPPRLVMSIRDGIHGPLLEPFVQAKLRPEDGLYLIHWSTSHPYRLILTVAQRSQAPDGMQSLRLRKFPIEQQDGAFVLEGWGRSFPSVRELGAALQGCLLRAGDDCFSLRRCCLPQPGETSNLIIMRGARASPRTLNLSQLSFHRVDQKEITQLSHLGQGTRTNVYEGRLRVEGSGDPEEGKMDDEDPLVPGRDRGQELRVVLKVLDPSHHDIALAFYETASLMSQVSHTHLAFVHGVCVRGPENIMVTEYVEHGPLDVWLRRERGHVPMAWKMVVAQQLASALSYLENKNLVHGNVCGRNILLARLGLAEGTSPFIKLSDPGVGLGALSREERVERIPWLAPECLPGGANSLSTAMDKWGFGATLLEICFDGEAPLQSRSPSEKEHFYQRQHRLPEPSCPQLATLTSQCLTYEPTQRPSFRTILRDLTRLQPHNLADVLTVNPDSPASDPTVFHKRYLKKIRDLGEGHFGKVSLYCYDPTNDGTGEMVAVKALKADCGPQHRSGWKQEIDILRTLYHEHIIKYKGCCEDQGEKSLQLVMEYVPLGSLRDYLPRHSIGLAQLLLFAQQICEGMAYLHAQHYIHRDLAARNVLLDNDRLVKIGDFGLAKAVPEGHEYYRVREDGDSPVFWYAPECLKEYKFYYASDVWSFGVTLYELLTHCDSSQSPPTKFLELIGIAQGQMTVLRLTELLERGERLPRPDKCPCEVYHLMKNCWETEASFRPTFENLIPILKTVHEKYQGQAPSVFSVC

Row | SMILES | TYK2 MSD OCI-LY10 Dmax % (OCI-LY10 cells) | DC50 (OCI-LY10 cells) [nM] | TYK2 MSD OCI-LY10 Dmax % [1] | DC50 [1] [nM]
1 | CNc1cc(N2CCc3c2ccc(C)c3CN2CCC(N3CCC4(CCN(C(=O)c5ccc(Cl)c(N6CCC(=O)NC6=O)c5)CC4)CC3)C(F)(F)C2)nn2c(C(=O)N[C@@H]3C[C@@H]3F)cnc12 (stereo partly drawn) [I-755] | C (C (75 to 50%)) | 10 to 100 | – | –
2 | CNc1cc(N2CCc3c(-c4ncc(CN5CC6(CCN(C(=O)c7cc(C)c(Cl)c(N8CCC(=O)NC8=O)c7)CC6(F)F)C5)cc4C)cccc32)nn2c(C(=O)N[C@@H]3C[C@@H]3F)cnc12 [I-756] | B (B (90 to >75%)) | < 10 | – | –
3 | CNc1cc(N2CCc3c(-c4ccc(CN5CCC6(CCN(C(=O)c7cc(C)c(OC)c(N8CCC(=O)NC8=O)c7)CC6)C(F)(F)C5)cn4)cccc32)nn2c(C(=O)N[C@@H]3C[C@@H]3F)cnc12 [I-757] | B (B (90 to >75%)) | < 10 | – | –
4 | CNc1cc(N2CCc3c(CN4CCC(N5CCC(N(C)c6ccc(Cl)c(N7CCC(=O)NC7=O)c6)CC5)C(F)(F)C4)cccc32)nn2c(C(=O)N[C@@H]3C[C@@H]3F)cnc12 (stereo partly drawn) [I-758] | B (B (90 to >75%)) | < 10 | – | –
5 | CNc1cc(N2CCc3c(-c4cnc(CC5CC6(CCN(C(=O)c7cc(C)c(Cl)c(N8CCC(=O)NC8=O)c7)CC6)C5)cn4)cccc32)nn2c(C(=O)N[C@@H]3C[C@@H]3F)cnc12 [I-760] | B (B (90 to >75%)) | < 10 | – | –
6 | CNc1cc(N2CCc3c(CN4CCC(CN5CCN(C(=O)c6ccc(Cl)c(N7CCC(=O)NC7=O)c6)CC5)C(F)(F)C4)cccc32)nn2c(C(=O)N[C@@H]3C[C@@H]3F)cnc12 (stereo partly drawn) [I-761] | B (B (90 to >75%)) | < 10 | – | –
7 | CNc1cc(N2CCc3c(-c4ncc(CN5CCC6(CCN(C(=O)c7cc(C)c(Cl)c(N8CCC(=O)NC8=O)c7)CC6)C(F)(F)C5)cc4C)cccc32)nn2c(C(=O)N[C@@H]3C[C@@H]3F)cnc12 [I-763] | B (B (90 to >75%)) | < 10 | – | –
8 | CNc1cc(N2CCc3c(CN4CCC(N5CCC6(CCN(C(=O)c7cc(Cl)c(OC)c(N8CCC(=O)NC8=O)c7)CC6)CC5)C(F)(F)C4)cccc32)nn2c(C(=O)N[C@@H]3C[C@@H]3F)cnc12 (stereo partly drawn) [I-764] | B (B (90 to >75%)) | < 10 | – | –
9 | CNc1cc(N2CCc3c(CN4CCC(N5CCC6(CCN(C(=O)c7cc(N8CCC(=O)NC8=O)c(Cl)cc7C)CC6)CC5)C(F)(F)C4)cccc32)nn2c(C(=O)N[C@@H]3C[C@@H]3F)cnc12 (stereo partly drawn) [I-765] | B (B (90 to >75%)) | < 10 | – | –
10 | CNc1cc(N2CCc3c(CN4CCC(CN5CCC6(CC5)CCN(C(=O)c5ccc(Cl)c(N7CCC(=O)NC7=O)c5)CC6)C(F)(F)C4)cccc32)nn2c(C(=O)N[C@@H]3C[C@@H]3F)cnc12 (stereo partly drawn) [I-766] | A (A (>90%)) | < 1 | – | –
11 | CNc1cc(-c2cn(C3CCN(C4CCN(C(=O)c5ccc(Cl)c(N6CCC(=O)NC6=O)c5)CC4)CC3)c3ccccc23)nn2c(C(=O)N[C@@H]3C[C@@H]3F)cnc12 [I-767] | D (D (<50%)) | > 100 | – | –
12 | CNc1cc(-c2cn(CC3CCN(C4CCN(C(=O)c5ccc(Cl)c(N6CCC(=O)NC6=O)c5)CC4)CC3)c3ccccc23)nn2c(C(=O)N[C@@H]3C[C@@H]3F)cnc12 [I-768] | D (D (<50%)) | > 100 | – | –
13 | CNc1cc(N2CCc3c(CN4CCC(N5CCC6(CCN(C(=O)c7cc(F)c(OC)c(N8CCC(=O)NC8=O)c7)CC6)CC5)C(F)(F)C4)cccc32)nn2c(C(=O)N[C@@H]3C[C@@H]3F)cnc12 (stereo partly drawn) [I-769] | B (B (90 to >75%)) | < 10 | – | –
14 | CNc1cc(N2CCc3c(CN4CCC(CN5CCC(N6CCN(C(=O)c7ccc(Cl)c(N8CCC(=O)NC8=O)c7)CC6)CC5)C(F)(F)C4)cccc32)nn2c(C(=O)N[C@@H]3C[C@@H]3F)cnc12 (stereo partly drawn) [I-770] | B (B (90 to >75%)) | < 10 | – | –
15 | CNc1cc(-c2cn(CC3CCN(CCC4CCN(C(=O)c5ccc(Cl)c(N6CCC(=O)NC6=O)c5)CC4)CC3)c3ccccc23)nn2c(C(=O)N[C@@H]3C[C@@H]3F)cnc12 [I-771] | B (B (90 to >75%)) | < 10 | – | –
16 | CNc1cc(-c2cn(CC3CCN(CC4CCN(C(=O)c5ccc(Cl)c(N6CCC(=O)NC6=O)c5)CC4)CC3)c3ccccc23)nn2c(C(=O)N[C@@H]3C[C@@H]3F)cnc12 [I-773] | D (D (<50%)) | > 100 | – | –
17 | CNc1cc(N2CCc3c(CN4CCC(N5CCC6(CCN(C(=O)c7cc(C)c(Cl)c(N8CCC(=O)NC8=O)c7)CC6)CC5)C(F)(F)C4)cccc32)nc2c(C(=O)N[C@@H]3C[C@@H]3F)cnn12 (stereo partly drawn) [I-775] | A (A (>90%)) | < 1 | – | –

Row | SMILES | TYK2 MSD OCI-LY10 Dmax % (OCI-LY10 cells) | DC50 (OCI-LY10 cells) [nM] | TYK2 MSD OCI-LY10 Dmax % [1] | DC50 [1] [nM]
18 | CNc1cc(N2CCc3c(-c4ccc(CN5CCC6(CCN(C(=O)c7cc(F)c(OC)c(N8CCC(=O)NC8=O)c7)CC6)C(F)(F)C5)cn4)cccc32)nn2c(C(=O)N[C@@H]3C[C@@H]3F)cnc12 [I-776] | B (B (90 to >75%)) | < 10 | – | –
19 | CNc1cc(-c2cn(C3CCN(CCC4CCN(C(=O)c5ccc(Cl)c(N6CCC(=O)NC6=O)c5)CC4)CC3)c3ccccc23)nn2c(C(=O)N[C@@H]3C[C@@H]3F)cnc12 [I-779] | D (D (<50%)) | > 100 | – | –
20 | CNc1cc(N2CCc3c(CN4CCC(N5CCC(C6CCN(C(=O)c7ccc(Cl)c(N8CCC(=O)NC8=O)c7)CC6)CC5)C(F)(F)C4)cccc32)nn2c(C(=O)N[C@@H]3C[C@@H]3F)cnc12 (stereo partly drawn) [I-780] | A (A (>90%)) | < 1 | – | –
21 | CNc1cc(N2CCc3c(N4CC(CN5CCC(N6CCN(C(=O)c7ccc(Cl)c(N8CCC(=O)NC8=O)c7)CC6)C(F)(F)C5)C4)cccc32)nn2c(C(=O)N[C@@H]3C[C@@H]3F)cnc12 (stereo partly drawn) [I-781] | D (D (<50%)) | > 100 | – | –
22 | CNc1cc(N2CCc3c(-c4ccc(CN5CC6(CCN(C(=O)c7cc(N8CCC(=O)NC8=O)c(C)cn7)CC6)C5)cn4)cccc32)nn2c(C(=O)N[C@@H]3C[C@@H]3F)cnc12 [I-782] | A (A (>90%)) | < 1 | – | –
23 | CNc1cc(N2CCc3c(N4CC(CN5CCC6(CCN(C(=O)c7ccc(Cl)c(N8CCC(=O)NC8=O)c7)CC6)C(F)(F)C5)C4)cccc32)nn2c(C(=O)N[C@@H]3C[C@@H]3F)cnc12 [I-783] | B (B (90 to >75%)) | < 10 | – | –
24 | CNc1cc(N2CCc3c(-c4ccc(CN5CCC(N6CCC(N(C)c7ccc(Cl)c(N8CCC(=O)NC8=O)c7)CC6)C(F)(F)C5)cn4)cccc32)nn2c(C(=O)N[C@@H]3C[C@@H]3F)cnc12 (stereo partly drawn) [I-784] | C (C (75 to 50%)) | 10 to 100 | – | –
25 | CNc1cc(N2CCc3c(N4CC(CN5CCC(N6CCC7(CCN(C(=O)c8ccc(Cl)c(N9CCC(=O)NC9=O)c8)CC7)CC6)C(F)(F)C5)C4)cccc32)nn2c(C(=O)N[C@@H]3C[C@@H]3F)cnc12 (stereo partly drawn) [I-785] | B (B (90 to >75%)) | < 10 | – | –
26 | CNc1cc(N2CCc3c(N4CC(CN5CCN(C6CCN(C(=O)c7ccc(Cl)c(N8CCC(=O)NC8=O)c7)CC6)CC5)C4)cccc32)nn2c(C(=O)N[C@@H]3C[C@@H]3F)cnc12 [I-787] | D (D (<50%)) | > 100 | – | –
27 | CNc1cc(-c2cn(C3CCN(CC4CCN(C(=O)c5ccc(Cl)c(N6CCC(=O)NC6=O)c5)CC4)CC3)c3ccccc23)nn2c(C(=O)N[C@@H]3C[C@@H]3F)cnc12 [I-789] | D (D (<50%)) | > 100 | – | –
28 | CNc1cc(N2CCc3c(CN4CCC(N5CC(C6CCN(C(=O)c7ccc(Cl)c(N8CCC(=O)NC8=O)c7)CC6)C5)C(F)(F)C4)cccc32)nn2c(C(=O)N[C@@H]3C[C@@H]3F)cnc12 (stereo partly drawn) [I-791] | A (A (>90%)) | < 1 | – | –
29 | CNc1cc(N2CCc3c(-c4ccc(CN5CCC6(CCN(C(=O)c7cc(Cl)c(F)c(N8CCC(=O)NC8=O)c7)CC6)C(F)(F)C5)cn4)cccc32)nn2c(C(=O)N[C@@H]3C[C@@H]3F)cnc12 [I-792] | B (B (90 to >75%)) | < 10 | – | –
30 | CNc1cc(N2CCc3c(C#CCN4CCC(N5CC6(CN(C(=O)c7ccc(Cl)c(N8CCC(=O)NC8=O)c7)C6)C5)C(F)(F)C4)cccc32)nn2c(C(=O)N[C@@H]3C[C@@H]3F)cnc12 (stereo partly drawn) [I-795] | – | – | A (A (>90%)) | < 1
31 | CNc1cc(N2CCc3c(-c4ccc(CN5CC6(CCN(C(=O)c7cc(C)c(C)c(N8CCC(=O)NC8=O)c7)CC6(F)F)C5)cn4)cccc32)nn2c(C(=O)N[C@@H]3C[C@@H]3F)cnc12 [I-796] | – | – | A (A (>90%)) | < 1
32 | CNc1cc(N2CCc3c(-c4ccc(CN5CCC6(CCN(C(=O)c7cc(C)c(C)c(N8CCC(=O)NC8=O)c7)CC6)C(F)(F)C5)cn4)cccc32)nn2c(C(=O)N[C@@H]3C[C@@H]3F)cnc12 [I-797] | – | – | A (A (>90%)) | < 1
33 | CNc1cc(-c2cn(C3CCN(C(=O)c4ccc(Cl)c(N5CCC(=O)NC5=O)c4)CC3)c3ccccc23)nn2c(C(=O)N[C@@H]3C[C@@H]3F)cnc12 [I-798] | – | – | D (D (<50%)) | > 100
